Test results taken from US11591299B1, “Prodrug compound of levosimendan, preparation method and use thereof” (Beijing Chenguang Tongchuang Pharmaceutical Research …, priority 2022, dated 2023).

Columns and labels:
[1] = general statement, no test described; cited from earlier work
[2] = Solubility determination in water (Chinese Pharmacopoeia 2020 solubility test method); type: physicochemical; settings: 25° C.±2° C., dissolution observed within 30 minutes
Procedure: The determination is based on the solubility test method in General Example 15 of Part IV in “Chinese Pharmacopoeia (2020 Edition)”: the test product was ground into fine powders, and water at about 25° C. is added in a certain water bath at 25° C.±2° C., and shaken vigorously for 30 seconds every 5 minutes, to observe the dissolution within 30 minutes. If there are no visible solute particles, it is regarded as complete dissolution.

[3] = Pharmacokinetic study: metabolism of prodrug and conversion to levosimendan in plasma after in vivo administration; settings: for ranking of metabolic conversion rates among the 13 prodrug molecules: in plasma within 10 minutes
Procedure: FIGS. 4-6 are the change profile of the content of compound TCX1001-031 itself in plasma after administration in the pharmacokinetic study, the change profile of the content of released levosimendan, and the pharmacokinetic metabolic conversion rate, respectively.
The conversion rates of these compounds to levosimendan in plasma within 10 minutes are approximately 30-45%.

Row | SMILES | solubility in water [2] | other results
1 | C[C@@H]1CC(=O)NN=C1c1ccc(NN=C(C#N)C#N)cc1 [Levosimendan, (R)-[[4-(1,4,5,6-tetrahydro-4-methyl-6-oxo-pyridazin-3-yl)phenyl]-hydrazono]-malononitrile] |  | solubility of levosimendan in most organic solvents [1]: insoluble or extremely poorly soluble; solubility of levosimendan in water [1]: insoluble
2 | C[C@@H]1CC(=O)N(COC(=O)c2cccnc2)N=C1c1ccc(NN=C(C#N)C#N)cc1 [TCX-1001-029, (R)-(3-((4-(2-(dicyanomethylene)hydrazino)phenyl)-4-methyl-6-oxo-5,6-dihydropyridazin-1(4H)-yl)methyl nicotinate] | [drawing 7] Rp = pyridin-3-yl Chemical name: (R)-(3-((4-(2- (dicyanomethylene)hydrazino)phenyl)- 4-methyl-6-oxo-5,6-dihydropyridazin- 1(4H)-yl)methyl nicotinate (TCX-1001-029) This product is extremely slightly soluble in water | ranking of metabolic conversion rates among the 13 prodrug molecules [3]: highest
3 | C[C@@H]1CC(=O)N(COC(=O)CN(C)C)N=C1c1ccc(NN=C(C#N)C#N)cc1 [TCX-1001-030] | [drawing 6] Rp = N,N-dimethylaminomethyl Chemical name: (R)-(3-((4-(2- (dicyanomethylene)hydrazino)phenyl)- 4-methyl-6-oxo-5,6-dihydropyridazin- 1(4H)-yl)m ethyl N,N- dimethylglycinate (TCX-1001-030) This product is slightly soluble in water | ranking of metabolic conversion rates among the 13 prodrug molecules [3]: highest
4 | C[C@@H]1CC(=O)N(COC(=O)c2ccc(CN3CCOCC3)cc2)N=C1c1ccc(NN=C(C#N)C#N)cc1 [TCX-1001-031] | [drawing 4] Rp = 4-(morpholin-1-ylmethyl)phenyl Chemical name: (R)-(3-((4-(2- (dicyanomethylene)hydrazino)phenyl)- 4-methyl-6-oxo-5,6-dihydropyridazin- 1(4H)-yl)methyl 4-(morpholin-1-ylmethyl)benzoate (TCX-1001-031) This product is sparingly soluble in water | ranking of metabolic conversion rates among the 13 prodrug molecules [3]: highest; time to complete metabolism of the prodrug (content drops to 0) ([3]; plasma, after in vivo administration): ≤ 1 min
5 | C[C@@H]1CC(=O)N(COC(=O)CN)N=C1c1ccc(NN=C(C#N)C#N)cc1 [TCX-1001-032, (R)-(3-((4-(2-(dicyanomethylene)hydrazino)phenyl)-4-methyl-6-oxo-5,6-dihydropyridazin-1(4H)-yl)methyl glycinate] | [drawing 9] Rp = aminomethyl Chemical name: (R)-(3-((4-(2- (dicyanomethylene)hydrazino)phenyl)- 4-methyl-6-oxo-5,6-dihydropyridazin- 1(4H)-yl)m ethyl glycinate (TCX-1001-032) This product is slightly soluble in water | 
6 | C[C@@H]1CC(=O)N(COC(=O)c2ccc(CN3CCN(C)CC3)cc2)N=C1c1ccc(NN=C(C#N)C#N)cc1 [TCX-1001-033] | [drawing 5] Rp = 4-(4-methylpiperazin-1-ylmethyl)phenyl Chemical name: (R)-(3-((4-(2- (dicyanomethylene)hydrazino)phenyl)- 4-methyl-6-oxo-5,6-dihydropyridazin- 1(4H)-yl)methyl 4-((4- methylpiperazin-1-yl)methyl)benzoate (TCX-1001-033) This product is sparingly soluble in water | ranking of metabolic conversion rates among the 13 prodrug molecules [3]: highest
7 | C[C@@H]1CC(=O)N(COC(=O)CCC(=O)O)N=C1c1ccc(NN=C(C#N)C#N)cc1 [TCX-1001-034] | [drawing 13] Rp = carboxyl ethyl Chemical name: (R)-(3-((4-(2- (dicyanomethylene)hydrazino)phenyl)- 4-methyl-6-oxo-5,6-dihydropyridazin- 1(4H)-yl)methyl 3-carboxylpropionate (TCX-1001-034) This product is slightly soluble in water | 
8 | C[C@@H]1CC(=O)N(COC(=O)OCC(=O)O)N=C1c1ccc(NN=C(C#N)C#N)cc1 [TCX-1001-035, (R)-(3-((4-(2-(dicyanomethylene)hydrazino)phenyl)-4-methyl-6-oxo-5,6-dihydropyridazin-1(4H)-yl)methyl carboxylmethyloxyformate] | [drawing 14] Rp = carboxylmethoxy Chemical name: (R)-(3-((4-(2- (dicyanomethylene)hydrazino)phenyl)- 4-methyl-6-oxo-5,6-dihydropyridazin- 1(4H)-yl)methyl carboxylmethyloxyformate (TCX-1001-035) This product is slightly soluble in water | 
9 | C[C@@H]1CC(=O)N(COC(=O)CC(=O)NCc2ccncc2)N=C1c1ccc(NN=C(C#N)C#N)cc1 [TCX-1001-036] | [drawing 10] Rp = pyridin-4-ylmethylaminoformylmethyl Chemical name: (R)-(3-((4-(2- (dicyanomethylene)hydrazino)phenyl)- 4-methyl-6-oxo-5,6-dihydropyridazin- 1(4H)-yl)methyl 3-oxo-3-((pyridin-4-ylmethyl)amino)propionate (TCX-1001-036) This product is extremely slightly soluble in water | 
10 | C[C@@H]1CC(=O)N(COC(=O)N2CCC(N3CCCCC3)CC2)N=C1c1ccc(NN=C(C#N)C#N)cc1 [TCX-1001-037] | [drawing 8] Rp = 4-(piperidin-1-yl)-piperidin-1-yl Chemical name: (R)-(3-((4-(2- (dicyanomethylene)hydrazino)phenyl)- 4-methyl-6-oxo-5,6-dihydropyridazin- 1(4H)-yl)methyl 4-(piperidin-1-yl)piperidin-1-ylformate (TCX-1001-037) This product is sparingly soluble in water | 
11 | C[C@@H]1CC(=O)N(COC(=O)COS(=O)(=O)O)N=C1c1ccc(NN=C(C#N)C#N)cc1 [TCX-1001-038, (R)-(3-((4-(2-(dicyanomethylene)hydrazino)phenyl)-4-methyl-6-oxo-5,6-dihydropyridazin-1(4H)-yl)methyl sulfonyloxyacetate] | [drawing 16] Rp = sulfonyloxymethyl Chemical name: (R)-(3-((4-(2- (dicyanomethylene)hydrazino)phenyl)- 4-methyl-6-oxo-5,6-dihydropyridazin- 1(4H)-yl)methyl sulfonyloxyacetate (TCX-1001-038) This product is extremely soluble in water | 
12 | C[C@@H]1CC(=O)N(COC(=O)CN2CCCC2)N=C1c1ccc(NN=C(C#N)C#N)cc1 [TCX-1001-039] | [drawing 11] Rp = pyrrolidin-1-ylmethyl Chemical name: (R)-(3-((4-(2- (dicyanomethylene)hydrazino)phenyl)- 4-methyl-6-oxo-5,6-dihydropyridazin- 1(4H)-yl)methyl 2-pyrrolidin-1-yl- acetate (TCX-1001-03 9) This product is slightly soluble in water | 
13 | C[C@@H]1CC(=O)N(COC(=O)COP(=O)(O)O)N=C1c1ccc(NN=C(C#N)C#N)cc1 [TCX-1001-040, (R)-(3-((4-(2-(dicyanomethylene)hydrazino)phenyl)-4-methyl-6-oxo-5,6-dihydropyridazin-1(4H)-yl)methyl phosphoryloxyacetate] | [drawing 15] Rp = phosphoryloxymethyl Chemical name: (R)-(3-((4-(2- (dicyanomethylene)hydrazino)phenyl)- 4-methyl-6-oxo-5,6-dihydropyridazin- 1(4H)-yl)methyl phosphoryloxyacetate (TCX-1001-040) This product is extremely soluble in water | 
14 | C[C@@H]1CC(=O)N(COC(=O)CC(=O)O)N=C1c1ccc(NN=C(C#N)C#N)cc1 [TCX-1001-041, (R)-(3-((4-(2-(dicyanomethylene)hydrazino)phenyl)-4-methyl-6-oxo-5,6-dihydropyridazin-1(4H)-yl)methyl 2-carboxyl acetate] | [drawing 12] Rp = carboxylmethyl Chemical name: (R)-(3-((4-(2- (dicyanomethylene)hydrazino)phenyl)- 4-methyl-6-oxo-5,6-dihydropyridazin- 1(4H)-yl)methyl 2-carboxylacetate (TCX-1001-041) This product is slightly soluble in water | 
